The values that follow come from patent US6451576B1, “Sesquiterpene synthases from grand fir (Abies grandis), and methods of use” (Washington State University Research Foundation, priority 1998, dated 2002).

Series [1] concerns the target T1, δ-selinene synthase (SEQ ID No:20) (Abies grandis, UniProt O64404).
T1 construct: made in house; host or cells: E. coli XL1-Blue/pGAG4 or E. coli BL21(DE3)/pSBAG4
T1 sequence (O64404 1-581): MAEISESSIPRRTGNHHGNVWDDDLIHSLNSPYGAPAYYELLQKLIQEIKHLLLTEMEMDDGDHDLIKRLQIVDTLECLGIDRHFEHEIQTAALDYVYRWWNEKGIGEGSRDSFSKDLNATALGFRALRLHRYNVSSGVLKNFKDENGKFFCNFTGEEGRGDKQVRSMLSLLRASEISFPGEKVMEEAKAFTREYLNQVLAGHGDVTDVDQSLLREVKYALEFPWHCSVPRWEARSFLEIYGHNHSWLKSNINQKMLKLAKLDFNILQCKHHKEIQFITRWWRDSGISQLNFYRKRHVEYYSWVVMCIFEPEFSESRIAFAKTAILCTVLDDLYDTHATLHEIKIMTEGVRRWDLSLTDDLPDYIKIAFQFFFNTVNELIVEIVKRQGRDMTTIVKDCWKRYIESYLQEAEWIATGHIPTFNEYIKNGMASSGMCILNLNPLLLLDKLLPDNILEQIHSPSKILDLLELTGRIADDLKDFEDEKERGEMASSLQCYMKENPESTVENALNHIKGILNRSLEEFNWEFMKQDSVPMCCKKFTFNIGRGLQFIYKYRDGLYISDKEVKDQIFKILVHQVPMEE
The series can be described thus: Kinetic parameters, metal ion requirement and substrate specificity of recombinant δ-selinene synthase. Type of series: biochemical. The following applies: for Km: read-out: Km value for divalent metal ion. On the procedure: (§1) The assay for recombinant sesquiterpene synthase (cyclase) activity was performed in 1 ml of buffer (extraction buffer without MnCl2 or the polymeric adsorbents) containing 3.5 μM [1-^3H]farnesyl diphosphate and the total protein extracted from a 5 ml bacterial culture to produce 10^5-10^6 dpm of product in 2 h at 31° C. The incubation mixture was overlaid with 1 ml pentane to trap volatile products. After incubation, the reaction mixture was extracted with pentane (3×1 ml) and the combined extract was passed through a MgSO4-silica gel column to provide the terpene hydrocarbon fractions as before. The columns were subsequently eluted with 3×1 ml of ether to collect any oxygenated products, and an aliquot of each fraction was taken for liquid scintillation counting to determine conversion rate. The monoterpene synthase and diterpene synthase activity assays were similarly performed as described in detail elsewhere (LaFever, R. E., et al., (1994) Arch. Biochem. Biophys. 313, 139-149; Bohlmann, J., et al., (1997) J. Biol. Chem. 272, 21784-21792; Lewinsohn, E., et al., (1991) Plant Physiol. 96, 38-43).
(§2) The substrate specificity and other kinetic. parameters of γ-humulene synthase (SEQ ID No:24) and δ-selinene synthase (SEQ ID No:20) were investigated in order to confirm the identification and classification of these enzymes. […] Neither of these sesquiterpene synthases requires K^+ or other monovalent cation for activity.
(§3) Substrate specificity of δ-selinene synthase (SEQ ID No:20) and γ-humulene synthase (SEQ ID No:24) was evaluated by comparing farnesyl diphosphate (C15) to geranyl diphosphate (C10) and geranylgeranyl diphosphate (C20) at saturation as precursors of the respective terpene olefins. […] The identities of the monoterpene products produced by the sesquiterpene synthases were determined by GLC-MS and are set forth in FIG. 4.

In series [2] the target is T2, γ-humulene synthase (SEQ ID No:24) (Abies grandis, UniProt O64405).
T2 construct: For further subcloning of the amplified, full-length cDNA into the pSBETa vector for high-level expression, the pGAG5 insert was amplified; made in house; host or cells: E. coli XL1-Blue/pGAG5 or E. coli BL21(DE3)/pSBAG5
T2 sequence (O64405 1-593): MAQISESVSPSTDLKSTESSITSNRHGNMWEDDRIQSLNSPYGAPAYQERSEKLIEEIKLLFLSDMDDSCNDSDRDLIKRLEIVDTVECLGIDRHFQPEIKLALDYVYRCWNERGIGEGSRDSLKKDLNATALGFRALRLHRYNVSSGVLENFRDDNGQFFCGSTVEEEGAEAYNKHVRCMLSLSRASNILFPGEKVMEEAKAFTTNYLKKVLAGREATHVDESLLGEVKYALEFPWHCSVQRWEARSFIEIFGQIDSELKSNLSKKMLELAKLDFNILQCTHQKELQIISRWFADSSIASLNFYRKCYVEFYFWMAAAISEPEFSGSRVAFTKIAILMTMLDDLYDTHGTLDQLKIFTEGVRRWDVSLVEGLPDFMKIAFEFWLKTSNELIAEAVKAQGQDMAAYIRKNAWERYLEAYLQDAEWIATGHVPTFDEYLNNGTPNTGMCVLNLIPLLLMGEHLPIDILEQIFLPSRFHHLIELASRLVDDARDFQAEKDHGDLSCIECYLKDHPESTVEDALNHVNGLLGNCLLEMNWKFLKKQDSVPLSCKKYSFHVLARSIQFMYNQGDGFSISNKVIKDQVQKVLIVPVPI
As to the kind of experiment: Kinetic parameters, metal ion requirement and substrate specificity of recombinant γ-humulene synthase. Type of series: biochemical. Conditions: for monoterpene product formed from geranyl diphosphate: GLC-MS; for Km: read-out: Km value for divalent metal ion. Here is the method:
as §1, §2, §3

Series [3] addresses T3, γ-Humulene Synthase (ag5) (SEQ ID No: 24) (Abies grandis, UniProt O64405).
T3 construct: For further subcloning of the amplified, full-length cDNA into the pSBETa vector for high-level expression, the pGAG5 insert was amplified; made in house; host or cells: E. coli XL1-Blue/pGAG5 or E. coli BL21(DE3)/pSBAG5
T3 sequence (O64405 1-593): T2 sequence (O64405 1-593)
As to the kind of experiment: Product profile of recombinant γ-humulene synthase in vitro (preparative assay, GLC-MS). The format is biochemical. The following applies: from [1-3H]farnesyl diphosphate; total ion current chromatogram. On the procedure:
(§4) For preparative incubations, the assay was scaled to 5 ml containing the total protein extracted from 100 ml of bacterial culture and 30 μM [1-^3H]farnesyl diphosphate, and the incubation time was extended to 8 h. Aliquots of the olefin fraction and the fraction containing oxygenated metabolites (diethyl ether eluate) were evaluated by liquid scintillation counting, and were analyzed by radio-GLC (Croteau, R. & Cane. D. E. (1985) Methods Enzymol. 110, 383-405; Satterwhite, D. M. & Croteau, R. (1988) J. Chromatogr. 452, 61-73) using a Gow-Mac 550P chromatograph that was equipped with a 3.18 mm×3.66 m stainless steel column packed with 5% OV17 (50% phenyl:50% methylsiloxane) on 100/120 mesh Gas Chrom Q (Alltech) and programmed from 150° C. to 220° C. at 2° C./min with He as carrier. The elution of co-injected standards was monitored with the Gow-Mac thermal conductivity detector (250° C. and 150 mA) and the radioactivity signal was continuously monitored with a Nuclear Chicago Model 8731 gas proportional counter; output data were processed using Perkin-Elmer Turbochrom Software.
(§5) Expression of Sesquiterpene Synthase cDNAs AG4 (SEQ ID No:19) and AG5. (SEQ ID No:23) in E. coli. Both putative sesquiterpene cyclase cDNAs (SEQ ID Nos:19 and 23) were expressed in bacterial strains E. coli XL1-Blue/pGAG4, E. coli XL1-Blue/pGAG5, E. coli BL21(DE3)/pSBAG4, and E. coli BL21(DE3)/pSBAG5 as set forth in EXAMPLE 7. Bacteria were grown to A600=0.5 at 37° C. in 5 ml or 100 ml of LB medium supplemented with 100 μg ampicillin/ml or 30 μg kanamycin/ml as determined by the vector. Cultures were then induced by addition of 1 mM isopropyl-1-thio-β-D-galactopyranoside and grown for another 12 h at 20° C. Cells were harvested by centrifugation (2000×g, 10 min) and resuspended in either 1 ml or 5 ml sesquiterpene synthase assay buffer (EXAMPLE 2). Cells were disrupted by sonication (Braun-Sonic 2000 with microprobe at maximum power for 15 seconds at 0-4° C.) and the homogenates were cleared by centrifugation (18,000×g, 10 min). Preparative assays were employed to generate product for GLC-MS analysis, as set forth in EXAMPLE 2, with quantification of composition via the total ion current chromatogram.
Product Profile of Recombinant γ-Humulene Synthase (SEQ ID No:24) In Vitro.

The target in series [4] is T4, δ-Selinene Synthase (ag4) (SEQ ID No. 20) (Abies grandis, UniProt O64404).
T4 construct: made in house; host or cells: E. coli XL1-Blue/pGAG4 or E. coli BL21(DE3)/pSBAG4
T4 sequence (O64404 1-581): T1 sequence (O64404 1-581)
The series can be described thus: Product profile of recombinant δ-selinene synthase in vitro (preparative assay, GLC-MS). Type of series: biochemical. The following applies: from [1-3H]farnesyl diphosphate; total ion current chromatogram. On the procedure: as §4, §5
Product Profile of Recombinant δ-Selinene Synthase (SEQ ID No:20) In Vitro.

Substrate in series [5]: CC(C)=CCC/C(C)=C/CC/C(C)=C/CO[P@@](=O)(O)OP(=O)(O)O
The series can be described thus: Kinetic parameters, metal ion requirement and substrate specificity of recombinant γ-humulene synthase. Type of series: biochemical, Abies grandis. Conditions: other: γ-humulene synthase; estimated; 31.0 °C. On the procedure:
as §1, with “The monoterpene synthase and diterpene synthase activity assays were similarly performed as described in detail elsewhere (LaFever, R. E., et al., (1994) Arch. Biochem. Biophys. 313, 139-149; Bohlmann, J., et al., (1997) J. Biol. Chem. 272, 21784-21792; Lewinsohn, E., et al., (1991) Plant Physiol. 96, 38-43).” left out
as §3

For `C=C/C(C)=C/CC=C(C)C` [E-ocimene], the “contribution to monoterpene products formed from geranyl diphosphate” value in series [1] (GLC-MS) worked out at 22.4%. In addition, the “monoterpene product formed from geranyl diphosphate” value (shortened to “monoterpene product formed”) in series [2] is given as “not detectable”.
Turning to `CC1=C[C@H]2C(=C(C)CC[C@H]2C(C)C)CC1` [δ-Amorphene], the “sesquiterpene products of γ-humulene synthase, %” value in series [3] turned out to be 0.5%. The “sesquiterpene products of δ-selinene synthase, %” value in series [4] amounted to 6.4%.
In the case of `C=C1C2CCC(C2)C1(C)C` (stereo not drawn) [camphene], the “monoterpene product formed” value in series [1] (GLC-MS) was “does not produce”; in series [2], “detectable amounts”.
Regarding `[Mn+2]` [Mn^2+], in series [1], the “maximum rate relative to that with Mg2+ at saturation” value is given as “less than 10%” and the Km is ~25 µM. Further, in series [2], the “metal ion utilization in the cyclization reaction” value is given as “comparable velocities” and the Km was ~25 µM.
For `C=C1CCCC2(C)CCC(C(C)C)=CC12` (stereo not drawn) [Sibirene], the “sesquiterpene products of γ-humulene synthase, %” value in series [3] was determined as 15.1%. Also, the “sesquiterpene products of δ-selinene synthase, %” value in series [4] is given as 0.7%.
For the molecule `CC1=CC2C(CC1)C(C)=CCC2C(C)C` (stereo not drawn) [α-Amorphene], the “sesquiterpene products of γ-humulene synthase, %” value in series [3] stood at 0.5%. Further, in series [4], the “sesquiterpene products of δ-selinene synthase, %” value is recorded as 2.7%.
Consider `C=C(C)[C@H]1CC=C(C)CC1` [Limonene], for which the “monoterpene product formed” value in series [1] (GLC-MS) and in series [2] was “principal monoterpene product” throughout.
Take `CC1=CC[C@H]2[C@H]3[C@@H]1[C@]2(C)CC[C@H]3C(C)C` [α-Copaene]: in series [3], the “sesquiterpene products of γ-humulene synthase, %” value stood at 0.1%. The “sesquiterpene products of δ-selinene synthase, %” value in series [4] is listed as 0.1%.
Regarding `CC1=CC[C@@H]2[C@H]3[C@H](C(C)C)CC[C@]2(C)[C@@H]13` [α-Ylangene], the “sesquiterpene products of γ-humulene synthase, %” value in series [3] turned out to be 2.7%. For the same molecule, the “sesquiterpene products of δ-selinene synthase, %” value in series [4] is given as 0.1%.
For `C=C(CCC=C(C)C)[C@@H]1CC=C(C)CC1` [β-Bisabolene], the “sesquiterpene products of γ-humulene synthase, %” value in series [3] was 3.9%. Further, the “sesquiterpene products of δ-selinene synthase, %” value in series [4] came out at 0.7%.
On to `CC(C)=C1C/C=C(\C)CC/C=C(\C)CC1` [Z-E-Germacrene B (tent.), Z,E-Germacrene B], for which, in series [3], the “sesquiterpene products of γ-humulene synthase, %” value is listed as 0.1%. Moreover, in series [4], the “sesquiterpene products of δ-selinene synthase, %” value turned out to be 1.3%.
With `CC1=C2C=C(C(C)C)CCC2(C)CCC1` (stereo not drawn) [δ-Selinene], the “sesquiterpene products of δ-selinene synthase, %” value in series [4] is given as 25.3%.
Consider `C=C1CC/C=C(\C)CC[C@@H]2[C@@H]1CC2(C)C` [β-Caryophyllene], for which the “sesquiterpene products of δ-selinene synthase, %” value in series [4] came out at 1.5%.
Take `[Mg+2]` [Mg^2+]: in series [1], the Km is ~125 µM. Also, in series [2], the “metal ion utilization in the cyclization reaction” value is “comparable velocities” and the Km was ~125 µM.

B1: γ-humulene synthase (SEQ ID No:24) (Abies grandis) (protein)
chain: T2 sequence (O64405 1-593)
notes: For further subcloning of the amplified, full-length cDNA into the pSBETa vector for high-level expression, the pGAG5 insert was amplified; made in house; host or cells: E. coli XL1-Blue/pGAG5 or E. coli BL21(DE3)/pSBAG5
As for B1, the Km in series [5] is 4.5 µM.

As a reminder, the Km is the substrate concentration at which the rate is half of its maximum.
